Measurements: patent publication US20070092444A1, “Inhibition of inward sodium currents in cancer” (priority 2003, published 2007)
Entries after “also recorded” stand apart in the source; their conditions may differ.

Assays:
[1] = tested on: constitutive amiloride-sensitive inward Na^+ current in high-grade glioma (GBM) cells; experiment: Whole-cell patch clamp, freshly resected and primary cultured high-grade glioma (Grade III/IV, GBM) cells; assay type: cell-based, human
Excerpt: (§1) FIGS. 2A-C show representative whole-cell patch clamp recordings.
(§2) FIGS. 4A and B show summary I-V curves of freshly resected normal astrocytes (FIG. 4A) and GBM cells (FIG. 4B). Inward currents (−60 mV) were −7.5±1.2 pA (normal) and −43.8±14.5 pA (GBM). Outward currents (+40 mV) averaged 42.2±2.4 pA and 47.2±12.5 pA for normal and GBMs, respectively. FIGS. 4C and D show summary amiloride-sensitive (difference) currents of freshly resected normal astrocytes (FIG. 4C) and GBM cells (FIG. 4D).
(§3) A constitutive amiloride-sensitive inward Na^+ conductance has been reported in human high-grade glioma cells. […] These inward Na^+ currents were not present in normal astrocytes or in low-grade astrocytomas (e.g., pilocytic astrocytomas). However, the composition of the channels responsible for the inward Na^+ conductance has not been reported. FIGS. 2A-C show representative whole cell patch-clamp measurements on tissue derived from a freshly resected human glioblastoma multiforme (GBM; WHO grade IV), normal astrocytes obtained from patients undergoing surgery for intractable epilepsy, and primary cultures of different grade glial tumors. […] However, there was no significant inward Na^+ current in normal astrocytes and Grades I and II astrocytoma cells (FIG. 2C).
Summary current-voltage (I-V) curves are presented for normal astrocytes and GBM cells in FIG. 4A and FIG. 4B, respectively, while difference I-V curves for normal astrocytes and GBM cells are presented in FIG. 4C and FIG. 4D, respectively. The GBM cells are depolarized by an average of 31 mV compared to the normal astrocytes under these recording conditions. The depolarized zero current membrane potential is due to the presence of an enhanced Na^+ conductance as is shown in the difference I-V curves.
(§4) FIG. 19A show representative whole-cell patch clamp recordings of ZR-75-1 and SKMEL-2 cells in the basal state.

[2] = tested on: constitutive inward Na^+ current of SKMEL-2 melanoma cells; experiment: Whole-cell patch clamp, SKMEL-2 melanoma cells; assay type: cell-based
Excerpt: (§5) FIGS. 5A-5C show representative whole-cell patch clamp recordings.
(§6) FIGS. 19A-19C show representative whole-cell patch clamp recordings.
(§7) A constitutive amiloride-sensitive inward Na^+ conductance was also observed in the breast carcinoma cell line ZR-75-1 and the melanoma cell line SKMEL-2. FIGS. 5A-C show representative whole cell patch-clamp measurements on ZR-75-1 cells and SKMEL-2 cells.
as §4

[3] = tested on: inward Na^+ currents in SK-MG cells; experiment: Whole-cell patch clamp, SK-MG glioma cells; assay type: cell-based, human
Protocol: (§8) FIGS. 7A-7C show representative whole-cell patch clamp recordings.
(§9) The amiloride-sensitive inward Na^+ currents are measured regardless of whether ASIC2 is absent or present (FIGS. 7A-D). Whole-cell patch clamp recordings were obtained from U87-MG, SK-MG, and D54-MG glioma cells in the basal state. […] This inhibition of the inward current occurred regardless of the absence or presence of ASIC2 mRNA (FIG. 7D) (as detected by RT-PCR as described above).
as §4

[4] = tested on: whole-cell currents of normal human astrocytes; experiment: Whole-cell patch clamp, normal human astrocytes; assay type: cell-based
Excerpt: as §1, §2
as §3, with “2C). […]” for “2C).”

[5] = tested on: constitutive inward Na^+ current of ZR-75-1 breast carcinoma cells; experiment: Whole-cell patch clamp, ZR-75-1 breast carcinoma cells; assay type: cell-based
Excerpt: as §5, §6, §7, §4

ASIC2 [6] = target: T1, ASIC2 (Homo sapiens, UniProt Q16515); experiment: Acid-activated currents in voltage-clamped Xenopus oocytes expressing ASIC2; assay type: cell-based; set-up: expressed in transfected cells; host or cells: Xenopus oocytes (cRNA injection); conditions: pHo 4.0, −60 mV
T1 sequence (Q16515 1-512): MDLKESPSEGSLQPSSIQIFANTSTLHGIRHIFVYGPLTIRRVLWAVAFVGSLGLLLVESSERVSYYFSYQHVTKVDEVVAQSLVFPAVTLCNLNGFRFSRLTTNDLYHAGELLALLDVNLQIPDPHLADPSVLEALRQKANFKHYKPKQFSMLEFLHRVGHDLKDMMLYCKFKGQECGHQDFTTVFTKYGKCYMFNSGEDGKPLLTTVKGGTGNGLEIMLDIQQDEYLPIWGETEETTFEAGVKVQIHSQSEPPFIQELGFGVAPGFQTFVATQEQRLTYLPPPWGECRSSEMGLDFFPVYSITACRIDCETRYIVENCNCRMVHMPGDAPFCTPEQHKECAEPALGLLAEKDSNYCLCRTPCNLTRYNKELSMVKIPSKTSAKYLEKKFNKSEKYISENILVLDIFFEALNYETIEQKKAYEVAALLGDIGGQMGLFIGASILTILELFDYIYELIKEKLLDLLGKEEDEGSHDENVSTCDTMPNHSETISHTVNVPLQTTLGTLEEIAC
Excerpt: FIGS. 8A-C show acid-activated ASIC currents in Xenopus oocytes. ASIC 2 (FIG. 8A), ASIC1 (FIG. 8B) and the combination of ASIC2 and ASIC1 (FIG. 8C) were examined. […] Each oocyte served as its own control.
(§10) Membrane potential was held at −60 mV, and the pHo was step decreased to 4.0 for 10 s, and then returned to 7.4 for 30 s before repeating the sequence.
Xenopus oocytes were used to express ASIC1 and ASIC2 mRNA individually and in combination. Oocyte preparation, cRNA injection, and two-electrode voltage clamp recordings were performed as described (33,67-69).
as §10

[7] = tested on: inward Na^+ currents in U87-MG cells; experiment: Whole-cell patch clamp, U87-MG glioma cells; assay type: cell-based, human
Protocol: as §8, §9, §4

[8] = tested on: inward currents in D54-MG glioma cells; experiment: Whole-cell patch clamp, D54-MG glioma cells; assay type: cell-based, human; conditions: 100 μM amiloride
Protocol: as §8, §9

primary human astrocytes = experiment: Transwell Migration Assay, primary human astrocytes; assay type: cell-based
Protocol: Approximately 10,000 cells were added to the upper side of a filter insert perforated with 5-8 μm holes, and induced to migrate through these pores toward the extracellular matrix protein vitronectin (coated on the underside of the filter). PcTX1 or control scrambled PcTX1 peptide was added to each compartment at the same time as the cells. BSA-coated filter inserts were used as negative controls. After 3 h, cells were fixed with 4% paraformaldehyde, and subsequently stained with crystal violet. Cells were counted on an inverted microscope, averaging five fields per Transwell chamber. Four-to-ten chambers were used under each condition.

ASIC2 [9] = target: T1, ASIC2; experiment: ASIC2 in planar lipid bilayers; assay type: biochemical
Excerpt: as §10

U87-MG cells = experiment: Transwell Migration Assay, U87-MG cells; assay type: cell-based, human; conditions: 3 h, vitronectin

| Compound | inhibition of inward Na^+ currents ([1]; 100 μM amiloride, Grade III and IV tumor cells, GBM) | inhibition of inward currents ([2]; 100 μM amiloride) | inhibition of inward Na^+ currents ([3]; 100 μM amiloride) | effect on currents ([4]; 100 μM amiloride, normal astrocytes) | inhibition of inward currents ([5]; 100 μM amiloride) | inhibition of acid-activated currents (ASIC2 [6]; 400 μM amiloride) | inhibition of inward Na^+ currents ([7]; 100 μM amiloride) | inhibition of inward currents [8] | block of constitutive inward Na^+ current ([1]; 10 nM peptide, freshly resected GBM) | block of inward basally activated currents ([1]; primary cultured GBM) | block of constitutive inward Na^+ current ([2]; 10 nM synthetic PcTX1) | block of constitutive inward Na^+ current ([3]; 10 nM peptide) | effect on whole-cell currents ([4]; PcTX1 (10 nM, FIG. 18B), normal human astrocytes) | effect on Transwell migration (primary human astrocytes) | block of constitutive inward Na^+ current ([5]; 10 nM synthetic PcTX1) | block of acid-induced inward currents (ASIC2 [6]; 1 nM peptide (FIG. 20)) | block of inward basally activated currents [7] | block of inward currents (ASIC2 [9]) | diminished ability to migrate through the filter (U87-MG cells) |
| --- | --- | --- | --- | --- | --- | --- | --- | --- | --- | --- | --- | --- | --- | --- | --- | --- | --- | --- | --- |
| N=C(N)NC(=O)c1nc(Cl)c(N)nc1N [amiloride] | completely inhibited; also recorded: blocked; also recorded: significantly inhibited | completely inhibited | inhibited; also recorded: likewise blocked | did not affect | completely inhibited | inhibited | inhibited; also recorded: likewise blocked | inhibited | – | – | – | – | – | – | – | – | – | – | – |
| Psalmotoxin 1 [PcTX1] | – | – | – | – | – | – | – | – | blocked | similarly blocked | blocked | blocked | without effect | no effect | blocked | not those inward Na^+ currents mediated by ASIC2; also recorded: not the inward currents mediated by ASIC2 | similarly blocked | not ASIC2 | > 90% |
